In patent US20100210635A1, “RENIN INHIBITORS” (Takeda Pharmaceutical Company Limited, priority 2006, published 2010):

molecular target: T1, Recombinant human renin (Homo sapiens, UniProt P00797); experiment: In vitro enzymatic activity assay of Renin inhibitors (fluorescence, QXL520/HiLyteFluo488 peptide substrate); type: biochemical; conditions: not given
T1 construct: isolate the active form (residues 67-406); made in house; host or cells: FreeStyle 293-F cells (transient expression of pcDNA3.1(+)/hREN)
T1 sequence (P00797 67-406): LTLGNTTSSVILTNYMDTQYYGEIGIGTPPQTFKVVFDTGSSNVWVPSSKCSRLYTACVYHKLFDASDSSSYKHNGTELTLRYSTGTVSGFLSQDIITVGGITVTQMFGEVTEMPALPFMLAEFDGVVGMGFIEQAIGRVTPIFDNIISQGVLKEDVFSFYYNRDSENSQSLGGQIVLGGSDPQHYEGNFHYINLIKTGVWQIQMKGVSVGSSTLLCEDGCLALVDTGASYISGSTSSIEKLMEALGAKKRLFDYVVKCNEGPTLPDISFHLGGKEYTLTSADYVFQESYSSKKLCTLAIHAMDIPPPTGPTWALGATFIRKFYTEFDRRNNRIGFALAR
Excerpt: Test compounds in varying concentrations may be reacted with recombinant human renin in the presence of substrate, e.g., QXL520-γ-Abu-Ile-His-Pro-Phe-His-Leu-Val-Ile-His-Thr-Lys (HiLyteFluo488)-Arg-OH (Anaspec, San Jose, Calif.). The reaction can be followed kinetically using fluorescence (excitation λ=485 nm; emission λ=538 nm). Inhibition constants (IC50) may be calculated by non-linear curve fitting of the compound concentrations and fluorescence intensities to the standard IC50 equation.
Solutions of test compounds in varying concentrations (<2 mM final concentration) are prepared in dimethyl sulfoxide (DMSO) and then diluted into assay buffer comprising 50 mM Hepes, 1 mM EDTA, 1 mM DTT, 0.1 mg/ml BSA, 0.01% Brij35, pH 7.4. Alternatively, the assay can be performed with a high BSA concentration, wherein the buffer contains an additional 2% BSA.
Recombinant human renin (3 nM final concentration) is added to the dilutions and pre-incubated with the compounds for 10 minutes at 37° C. As described in Examples A-C above, human Renin can be obtained by expressing preprorenin (residue 1-406) in mammalian cells, treating the prorenin (residues 24-406) contained in the culture supernatant with trypsin, and isolate the active form (residues 67-406). After pre-incubation, the reaction is initiated with 1 μM of substrate QXL520-γ-Abu-Ile-His-Pro-Phe-His-Leu-Val-Ile-His-Thr-Lys (HiLyteFluo488)-Arg-OH (Anaspec, San Jose, Calif.). The final DMSO in the assay is 5%. The total volume of the reaction mixture is 20 μL, which can be placed on Greiner 384-well small volume plates.
Renin activity may be determined via fluorescence (excitation λ=485 nm; emission λ=538 nm), e.g., on a Molecular Devices SPECTROmax GEMINI XPS. The fluorescence intensity is determined upon the addition of substrate and determined again after incubation at 37° C. for one hour. The fluorescence intensity of a blank (no inhibition) using vehicle alone is also determined. Renin activity is linearly proportional to the change in fluorescence observed (final−initial).
The percent inhibition of Renin at a given compound concentration is defined as:
100%×[1−(Fcompound/Fblank)]
where Fcompound is the observed fluorescence at a given concentration of test compound and Fblank is the observed fluorescence in the presence of vehicle alone.
The pIC50 value (negative log of the molar concentration of the compound that produces 50% inhibition) of a test compound is calculated by non-linear least squares curve fitting of the equation: […]
to percent inhibition versus compound concentration. The 50% inhibitory concentration (IC50) of a test compound is calculated by raising 10 to the negative pIC50 (10^−pIC50).

Structure (SMILES) | IC50 [nM]
CC(=O)NCCc1ccccc1Oc1ccccc1CCC(=O)N1CCNC[C@H]1Cc1ccc(OC(=O)N2CCOCC2)cc1 [Example 80, (R)-4-((1-(3-(2-(2-(2-acetamidoethyl)phenoxy)phenyl)propanoyl)piperazin-2-yl)methyl)phenyl morpholine-4-carboxylate] | 500 to 5000
O=C(Oc1ccc(C[C@@H]2CNCCN2C(=O)CCc2ccccc2Oc2ccccc2)cc1)N1CCOCC1 [Example 73, (R)-4-((1-(3-(2-phenoxyphenyl)propanoyl)piperazin-2-yl)methyl)-phenyl morpholine-4-carboxylate] | 500 to 5000

same assay, conditions: recombinant human renin 3 nM, 1 μM substrate, 37° C., pH 7.4; values given as ranges; read-out: IC50 of Exemplified Compounds Against Renin

Structure (SMILES) | IC50 [nM]
CC(=O)NCc1ccccc1Oc1ccccc1CCC(=O)N1CCNC[C@H]1Cc1ccccc1 [Example 29, (R)—N-(2-(2-(3-(2-Benzylpiperazin-1-yl)-3-oxopropyl)phenoxy)benzyl)acetamide] | < 500
CC(=O)NCc1cc(C)ccc1Oc1cc(C)ccc1CCC(=O)N1CCNC[C@H]1Cc1ccccc1 [Example 46, (R)—N-(2-(2-(3-(2-benzylpiperazin-1-yl)-3-oxopropyl)-5-methylphenoxy)-5-methylbenzyl)acetamide] | < 500
CC(=O)NCCc1ccccc1Cc1ccccc1CCC(=O)N1CCNC[C@H]1Cc1ccccc1 [Example 84, (R)—N-(2-(2-(3-(2-benzylpiperazin-1-yl)-3-oxopropyl)benzyl)phenethyl)acetamide] | < 500
CC(=O)NCCc1ccccc1Cc1ccccc1CCC(=O)N1CCNC[C@H]1Cc1ccc(OCC(=O)O)cc1 [Example 90, (R)-2-(4-((1-(3-(2-(2-(2-acetamidoethyl)benzyl)phenyl)propanoyl)piperazin-2-yl)methyl)phenoxy)acetic acid] | < 500
CCOc1cccc(Oc2ccccc2CCC(=O)N2CCNC[C@H]2Cc2ccccc2)c1 [Example 32, (R)-1-(2-Benzylpiperazin-1-yl)-3-(2-(3-ethoxyphenoxy)phenyl)propan-1-one] | 500 to 5000
CC(=O)NCCc1ccccc1Oc1ccccc1CCC(=O)N1CCNC[C@H]1Cc1ccc(O)cc1 [Example 79, (R)—N-(2-(2-(3-(2-(4-hydroxybenzyl)piperazin-1-yl)-3-oxopropyl)phenoxy)phenethyl)acetamide] | < 500
CCC(=O)NCCc1ccccc1Oc1ccccc1CCC(=O)N1CCNC[C@H]1Cc1ccccc1 [Example 78, (R)—N-(2-(2-(3-(2-benzylpiperazin-1-yl)-3-oxopropyl)phenoxy)phenethyl)propionamide] | < 500
O=C(CCc1ccccc1Oc1ccc(Cl)cc1)N1CCNC[C@H]1Cc1ccccc1 [Example 22, (R)-1-(2-Benzylpiperazin-1-yl)-3-(2-(4-chlorophenoxy)phenyl)propan-1-one] | < 500
CC(=O)NCc1cc(C)ccc1Oc1ccc(C)cc1CCC(=O)N1CCNC[C@H]1Cc1ccccc1 [Example 43, (R)—N-(2-(2-(3-(2-benzylpiperazin-1-yl)-3-oxopropyl)-4-methylphenoxy)-5-methylbenzyl)acetamide] | < 500
O=C(Cc1ccccc1-c1ccc(F)cc1)N1CCNC[C@H]1Cc1ccccc1 [Example 3, (R)-1-(2-Benzylpiperazin-1-yl)-2-(4′-fluorobiphenyl-2-yl)ethanone] | 500 to 5000
COc1ccc(Oc2ccccc2CCC(=O)N2CCNC[C@H]2Cc2ccccc2)c(CNC(C)=O)c1 [Example 41, (R)—N-(2-(2-(3-(2-benzylpiperazin-1-yl)-3-oxopropyl)phenoxy)-5-methoxybenzyl)acetamide] | < 500
CC(=O)NCCCc1ccccc1Oc1ccccc1CCC(=O)N1CCNC[C@H]1Cc1ccccc1 [Example 48, (R)—N-(3-(2-(2-(3-(2-benzylpiperazin-1-yl)-3-oxopropyl)phenoxy)-phenyl)propyl)acetamide] | 500 to 5000
CC(=O)NCc1ccc(C)nc1Oc1ccc(C)cc1CCC(=O)N1CCNC[C@H]1Cc1ccccc1 [Example 42, (R)—N-((2-(2-(3-(2-benzylpiperazin-1-yl)-3-oxopropyl)-4-methylphenoxy)-6-methylpyridin-3-yl)methyl)acetamide] | 500 to 5000
COCCOCCCOc1ccccc1CCC(=O)N1CCNC[C@H]1Cc1ccccc1 [Example 77, (R)-1-(2-benzylpiperazin-1-yl)-3-(2-(3-(2-methoxyethoxy)propoxy)phenyl)propan-1-one] | 500 to 5000
CC(=O)NCCc1cc(C)ccc1Oc1ccc(C)cc1CCC(=O)N1CCNC[C@H]1Cc1ccccc1 [Example 25, (R)—N-(2-(2-(3-(2-Benzylpiperazin-1-yl)-3-oxopropyl)-4-methylphenoxy)-1-methylphenethyl)acetamide] | < 500
CC(=O)NCCc1ccccc1Cc1ccccc1CCC(=O)N1CCNC[C@H]1Cc1ccc(O)cc1 [Example 88, (R)—N-(2-(2-(3-(2-(4-hydroxybenzyl)piperazin-1-yl)-3-oxopropyl)benzyl)phenethyl)acetamide] | < 500
O=C(CCc1ccccc1Oc1ccccc1)N1CCNC[C@H]1Cc1ccc(OCc2nnn[nH]2)cc1 [Example 85, (R)-1-(2-(4-((1H-tetrazol-5-yl)methoxy)benzyl)piperazin-1-yl)-3-(2-phenoxyphenyl)propan-1-one] | < 500
O=C(CCc1ccccc1Oc1ccccc1CO)N1CCNC[C@H]1Cc1ccccc1 [Example 87, (R)-1-(2-benzylpiperazin-1-yl)-3-(2-(2-(hydroxymethyl)phenoxy)phenyl)propan-1-one] | < 500
N#Cc1ccccc1Oc1ccccc1CCC(=O)N1CCNC[C@H]1Cc1ccccc1 [Example 30, (R)-2-(2-(3-(2-benzylpiperazin-1-yl)-3-oxopropyl)phenoxy)benzonitrile] | 500 to 5000

The next lines start with the values.

IC50 [nM] | Structure (SMILES)
500 to 5000 | O=C(CCc1ccccc1OCCCO)N1CCNC[C@H]1Cc1ccccc1 [Example 76, (R)-1-(2-benzylpiperazin-1-yl)-3-(2-(3-hydroxypropoxy)phenyl)-propan-1-one]
500 to 5000 | O=C(C(Cc1ccccc1)c1ccccc1)N1CCNC[C@H]1Cc1ccccc1 (stereo partly drawn) [Example 6, 1-((R)-2-Benzylpiperazin-1-yl)-2,3-diphenylpropan-1-one]
5000 to 50000 | O=C(CCC1(c2ccccc2)CCCCC1=O)N1CCNC[C@H]1Cc1ccccc1 (stereo partly drawn) [Example 52, 2-(3-((R)-2-benzylpiperazin-1-yl)-3-oxopropyl)-2-phenylcyclohexanone]
< 500 | Cc1cccc(Oc2ccccc2CCC(=O)N2CCNC[C@H]2Cc2ccccc2)c1 [Example 23, (R)-1-(2-benzylpiperazin-1-yl)-3-(2-(m-tolyloxy)phenyl)propan-1-one]
500 to 5000 | C[C@H](CC(=O)N1CCNC[C@H]1Cc1ccccc1)c1ccccc1 [Example 17, (R)-1-((R)-2-Benzylpiperazin-1-yl)-3-phenylbutan-1-one]
5000 to 50000 | O=S(=O)(CCc1ccccc1)N1CCNC[C@H]1Cc1ccccc1 [Example 12, (R)-2-Benzyl-1-(phenethylsulfonyl)piperazine]
5000 to 50000 | O=C(COc1ccccc1Br)N1CCNC[C@H]1Cc1ccccc1 [Example 4, (R)-1-(2-Benzylpiperazin-1-yl)-2-(2-bromophenoxy)ethanone]
5000 to 50000 | O=C(CCc1ccccc1)N1CCNC[C@H]1Cc1ccccc1 [Example 1, (R)-1-(2-Benzylpiperazin-1-yl)-3-phenylpropan-1-one]
< 500 | O=C(CCc1ccccc1Cc1ccc(Cl)cc1)N1CCNC[C@H]1Cc1ccccc1 [Example 56, (R)-1-(2-benzylpiperazin-1-yl)-3-(2-(4-chlorobenzyl)phenyl)propan-1-one]
> 50000 | COc1ccccc1OCC(=O)N1CCNC[C@H]1Cc1ccccc1 [Example 57, (R)-1-(2-benzylpiperazin-1-yl)-2-(2-methoxyphenoxy)ethanone]
